Patent US7666875B2, “Hydantoin compounds” (Eisai R&D Management Co., Ltd., priority 2005, dated 2010)
Like-named read-outs stand apart in the source and are kept apart here.

Target: T1, human T-bet (Homo sapiens, UniProt Q9UL17)
T1 construct: expressed in transfected cells; host or cells: engineered HEK cells (HEKT-bet)
T1 sequence (Q9UL17 1-535): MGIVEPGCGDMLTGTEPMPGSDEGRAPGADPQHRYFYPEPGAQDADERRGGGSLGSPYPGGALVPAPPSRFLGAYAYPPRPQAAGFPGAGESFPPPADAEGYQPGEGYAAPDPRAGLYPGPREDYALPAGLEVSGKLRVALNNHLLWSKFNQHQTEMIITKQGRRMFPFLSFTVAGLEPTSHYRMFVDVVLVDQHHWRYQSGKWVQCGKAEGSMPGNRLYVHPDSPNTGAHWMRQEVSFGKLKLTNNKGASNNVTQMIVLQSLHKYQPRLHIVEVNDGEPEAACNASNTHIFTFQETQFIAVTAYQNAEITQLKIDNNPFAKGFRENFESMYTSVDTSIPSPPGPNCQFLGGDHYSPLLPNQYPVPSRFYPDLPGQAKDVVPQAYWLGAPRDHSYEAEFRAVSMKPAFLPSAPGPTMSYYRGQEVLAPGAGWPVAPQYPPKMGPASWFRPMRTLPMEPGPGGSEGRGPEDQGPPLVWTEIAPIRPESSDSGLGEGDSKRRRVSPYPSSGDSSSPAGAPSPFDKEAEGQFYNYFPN
Experiment: HEKT-bet-luc assay (T-bet dependent luciferase reporter in engineered HEK cells)
Format: cell-based
Details: HEKT-bet cells, compound 24 hours, IC50 normalized to reference ER-213038, read-out: IC50
How it was run: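 HEK cells expressing human T-bet and a T-box element–luciferase reporter were treated with compound for 24 h, then luciferase was read by luminescence. IC50 was scaled between uninhibited signal and maximal inhibition, then normalized to a same-plate reference compound multiplied by its established potency.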

SMILES	IC50 (Table 4) [nM]	further results
COCCN1C(=O)N(CCCc2ccccc2)C(=O)C12CCN(Cc1cc(OC)cc(OC)c1)CC2 [Example 188]	246	–
COCCN1C(=O)N(Cc2cccc(OC)c2)C(=O)C12CCN(Cc1cccc(-c3ccc(NC(C)=O)cc3)c1)CC2 [Example 238]	414	–
COCCN1C(=O)N(Cc2cccc(OC)c2)C(=O)C12CCN(Cc1cc(OC)cc(OC)c1F)CC2 [Example 146]	142	–
COCCN1C(=O)N(Cc2cccc(OC)c2)C(=O)C12CCN(Cc1cccc3ccccc13)CC2 [Example 128]	86	–
COCCN1C(=O)N(Cc2cccc(OC)c2)C(=O)C12CCN(Cc1c(C)c(C)c(C)c(C)c1C)CC2 [Example 164]	182	–
COCCN1C(=O)N(Cc2cccc(OC)c2)C(=O)C12CCN(Cc1c(OC)ccc3ccccc13)CC2 [Example 129]	94	–
COCCN1C(=O)N(C/C=C/c2cccc3ccccc23)C(=O)C12CCN(Cc1ccccc1)CC2 [Example 152]	149	–
COc1cc(CN2CCC3(CC2)C(=O)N(Cc2cc(OC)cc(OC)c2)C(=O)N3Cc2ccncc2)cc(OC)c1 [Example 145]	139	–
COCCN1C(=O)N(Cc2cccc(OC)c2)C(=O)C12CCN(Cc1cccc3ccccc13)CC2 [Example 133]	119	–
COCCN1C(=O)N(Cc2cccc(OC)c2)C(=O)C12CCN(Cc1c3ccccc3cc3ccccc13)CC2 [Example 160]	168	–
COCCN1C(=O)N(Cc2cccc(OC)c2)C(=O)C12CCN(Cc1ccc(-c3cccs3)s1)CC2 [Example 120]	–	IC50 (Table 3): 1990 nM
CCN1C(=O)N(Cc2ccc3ccccc3c2)C(=O)C12CCN(Cc1cc(OC)cc(OC)c1)CC2 [Example 177]	205	–
COCCN1C(=O)N(CCCc2cccnc2)C(=O)C12CCN(Cc1ccnc3ccccc13)CC2 [Example 81]	–	IC50 (Table 3): 650 nM
COCCN1C(=O)N(Cc2cccc(OC)c2)C(=O)C12CCN(Cc1cccc(C)c1)CC2 [Example 233]	386	–
COCCN1C(=O)N(Cc2ccoc2)C(=O)C12CCN(Cc1cc(OC)cc(OC)c1)CC2 [Example 94]	–	IC50 (Table 3): 936 nM
COCCN1C(=O)N(Cc2cccc(OC)c2)C(=O)C12CCN(Cc1ccc(N(C)C)c3ccccc13)CC2 [Example 194]	262	–
COCCN1C(=O)N(Cc2cccc(OC)c2)C(=O)C12CCN(C1CCc3ccc(C)cc31)CC2 (stereo not shown) [Example 106]	–	IC50 (Table 3): 1420 nM
COCCN1C(=O)N(Cc2cccc(OC)c2)C(=O)C12CCN(Cc1cccc(-c3ccsc3)c1)CC2 [Example 85]	–	IC50 (Table 3): 750 nM
COc1cccc(CN2C(=O)N(Cc3cccc(-n4cccc4)c3)C3(CCN(Cc4cccc5ccccc45)CC3)C2=O)c1 [Example 229]	377	–
COc1cc(CN2CCC3(CC2)C(=O)N(C/C=C/c2ccccc2)C(=O)N3Cc2ccc(-n3cccn3)cc2)cc(OC)c1 [compound 41]	–	IC50 (Table 2): 45 nM
COCCN1C(=O)N(C/C=C/c2cccc(C)c2)C(=O)C12CCN(Cc1ccccc1)CC2 [Example 205]	298	–
COCCN1C(=O)N(Cc2cccc(OC)c2)C(=O)C12CCN(Cc1ccc(OC)c(OC)c1C)CC2 [Example 219]	362	–
CCN1C(=O)N(C/C=C/c2ccccc2)C(=O)C12CCN(Cc1cccc(C)c1)CC2 [Example 125]	68	–
COc1cccc(CN2CCC3(CC2)C(=O)N(Cc2cc(OC)cc(OC)c2)C(=O)N3Cc2ccc3c(c2)nnn3C)c1 [Example 97]	–	IC50 (Table 3): 1080 nM
COCCN1C(=O)N(Cc2cc(C(C)(C)C)cc(C(C)(C)C)c2)C(=O)C12CCN(Cc1ccccc1)CC2 [Example 114]	–	IC50 (Table 3): 1740 nM
COCCN1C(=O)N(CCCc2ccccc2)C(=O)C12CCN(Cc1ccccc1)CC2 [Example 90]	–	IC50 (Table 3): 838 nM
COc1cccc(CN2C(=O)N(CCCO)C3(CCN(Cc4cccc5ccccc45)CC3)C2=O)c1 [Example 216]	349	–
COCCN1C(=O)N(Cc2cccc(OC)c2)C(=O)C12CCN(Cc1ccccc1)CC2 [Example 234]	387	–
CCN1C(=O)N(Cc2cccc(OC)c2)C(=O)C12CCN(Cc1ccc3ccccc3c1)CC2 [Example 197]	270	–

Second part, led by results:

IC50 (Table 4) [nM]	SMILES	further results
532	COCCN1C(=O)N(Cc2cccc(OC)c2)C(=O)C12CCN(Cc1c(Cl)ccc(C)c1F)CC2 [Example 275]	–
572	COCCN1C(=O)N(CCCc2ccccc2OC)C(=O)C12CCN(Cc1ccccc1)CC2 [Example 291]	–
522	CCOc1ccc(OCC)c(CN2CCC3(CC2)C(=O)N(Cc2cccc(OC)c2)C(=O)N3CCOC)c1 [Example 271]	–
469	COCCN1C(=O)N(Cc2cccc(-n3cccc3)c2)C(=O)C12CCN(Cc1ccccc1)CC2 [Example 256]	–
551	COCCN1C(=O)N(CCCc2ccccc2)C(=O)C12CCN(Cc1ccc3ccccc3c1)CC2 [Example 284]	–
432	COCCN1C(=O)N(Cc2cccc(OC)c2)C(=O)C12CCN(Cc1nn(-c3ccccc3)nc1C)CC2 [Example 245]	–
579	O=C1N(/C=C/Cc2ccccc2)C(=O)C2(CCN(Cc3cccc4ccccc34)CC2)N1CCO [Example 294]	–
568	COCCN1C(=O)N(Cc2cccc(OC)c2)C(=O)C12CCN(Cc1cccc3c1OCCO3)CC2 [Example 290]	–
596	COc1cccc(CN2C(=O)N(Cc3cccc(OC)c3)C3(CCN(Cc4cccc5ccccc45)CC3)C2=O)c1 [Example 299]	–
417	COCCN1C(=O)N(Cc2cccc(OC)c2)C(=O)C12CCN(Cc1cccc(OC)c1)CC2 [Example 239]	–
452	COCCN1C(=O)N(Cc2cccc(OC)c2)C(=O)C12CCN(Cc1cc(OC)ccc1F)CC2 [Example 255]	–
